In ChEMBL document CHEMBL1132068, “A new class of anti-HIV agents: synthesis and activity of conjugates of HIV protease inhibitors with a reverse transcriptase inhibitor” (Bioorg Med Chem Lett, 1999):

Assays:
CEM-SS [1] = assay: Inhibitory activity against HIV-1 IIIB in CEM-SS infected cells (Experiment 2); assay type: functional, cell-based; conditions: Homo sapiens
CEM-SS [2] = assay: Inhibitory activity against HIV-1 IIIB in CEM-SS infected cells relative to AZT; assay type: functional, Homo sapiens
CEM-SS [3] = assay: Inhibitory activity against HIV-1 IIIB in CEM-SS infected cells; assay type: functional, cell-based; conditions: Homo sapiens
[4] = molecular target: Human immunodeficiency virus type 1 protease (Human immunodeficiency virus 1) (UniProt Q72874); assay: Inhibitory activity against HIV protease at a concentration of 5 uM
[5] = molecular target: Human immunodeficiency virus type 1 protease (Human immunodeficiency virus 1) (UniProt Q72874); assay: Inhibitory activity against HIV protease at a concentration of 50 uM
CEM-SS [6] = assay: Inhibitory activity against HIV-1 IIIB in CEM-SS infected cells; In active; assay type: functional, cell-based, Homo sapiens
MT4 = assay: Inhibitory activity against HIV-1 IIIB in MT-4 infected cells; assay type: functional, cell-based; conditions: Homo sapiens

| Structure (SMILES) | EC50 (CEM-SS [1]) [µM] | Relative Potency (CEM-SS [2]) | EC50 (CEM-SS [3]) [µM] | inhibition [4] [%] | inhibition [5] [%] | EC50 (CEM-SS [6]) | EC50 (MT4) [µM] |
| --- | --- | --- | --- | --- | --- | --- | --- |
| Cc1cn([C@H]2C[C@H](N=[N+]=[N-])[C@@H](CO)O2)c(=O)[nH]c1=O [ZIDOVUDINE] | 0.011 | 1 |  |  |  |  |  |
| Cc1cn(C2CC(N=[N+]=[N-])C(COC(=O)C(C)C(C)C(=O)N[C@@H](Cc3ccccc3)[C@H](O)C(=O)N3CSC[C@H]3C(=O)NC(C)(C)C)O2)c(=O)[nH]c1=O (stereo partly drawn) |  | 4.7 | 0.027 | 29 |  |  |  |
| Cc1ccccc1CNC(=O)[C@H]1N(C(=O)[C@@H](O)[C@H](Cc2ccccc2)NC(=O)C(C)C(C)C(=O)OCC2OC(n3cc(C)c(=O)[nH]c3=O)CC2N=[N+]=[N-])CSC1(C)C (stereo partly drawn) |  | 1.5 | 0.0073 | 96 | 39 |  |  |
| Cc1ccccc1CNC(=O)[C@H]1N(C(=O)[C@@H](O)[C@H](Cc2ccccc2)NC(=O)CC(C)(C)C(=O)O)CSC1(C)C |  |  |  | 100 | 78 | Not Active |  |
| Cc1cn(C2CC(N=[N+]=[N-])C(COC(=O)C(C)(C)CC(=O)N[C@@H](Cc3ccccc3)[C@H](O)C(=O)N3CSC[C@H]3C(=O)NC(C)(C)C)O2)c(=O)[nH]c1=O (stereo partly drawn) |  | 4.7 | 0.027 | 9 |  |  |  |
| CSC[C@H](NC(=O)COc1cccc2cnccc12)C(=O)N[C@@H](Cc1ccccc1)[C@H](O)C(=O)N1CSC[C@H]1C(=O)NC(C)(C)C |  |  | 0.04 | 100 |  |  | 0.00057 |
| Cc1cn(C2CC(N=[N+]=[N-])C(COC(=O)C(C)C(C)C(=O)N[C@@H](Cc3ccccc3)[C@H](O)C(=O)N3CSC(C)(C)[C@H]3C(=O)NC(C)(C)C)O2)c(=O)[nH]c1=O (stereo partly drawn) |  | 1.4 | 0.09 | 69 |  |  |  |
| Cc1cn(C2CC(N=[N+]=[N-])C(COC(=O)CCC(=O)N[C@@H](Cc3ccccc3)[C@H](O)C(=O)N3CSC[C@H]3C(=O)NC(C)(C)C)O2)c(=O)[nH]c1=O (stereo partly drawn) |  | 3 | 0.042 | 14 |  |  |  |
| CC(C(=O)O)C(C)C(=O)N[C@@H](Cc1ccccc1)[C@H](O)C(=O)N1CSC(C)(C)[C@H]1C(=O)NC(C)(C)C (stereo partly drawn) |  |  |  | 99 | 78 |  | 225 |
| Cc1ccccc1CNC(=O)[C@@H]1CSCN1C(=O)[C@@H](O)[C@H](Cc1ccccc1)NC(=O)CC(C)(C)C(=O)O |  |  |  | 87 |  |  |  |
| CC(C)(C)NC(=O)[C@@H]1CSCN1C(=O)[C@@H](O)[C@H](Cc1ccccc1)NC(=O)CCC(=O)O |  |  |  | 74 |  |  |  |
| CC(C)(C)NC(=O)[C@@H]1CSCN1C(=O)[C@@H](O)[C@H](Cc1ccccc1)NC(=O)CC(C)(C)C(=O)O |  |  |  | 93 | 20 |  | > 2000 |
| Cc1cn(C2CC(N=[N+]=[N-])C(COC(=O)C(C)(C)CC(=O)N[C@@H](Cc3ccccc3)[C@H](O)C(=O)N3CSC(C)(C)[C@H]3C(=O)NC(C)(C)C)O2)c(=O)[nH]c1=O (stereo partly drawn) |  | 6.6 | 0.019 | 41 |  |  |  |
| Cc1ccccc1CNC(=O)[C@H]1N(C(=O)[C@@H](O)[C@H](Cc2ccccc2)NC(=O)CC(C)(C)C(=O)OCC2OC(n3cc(C)c(=O)[nH]c3=O)CC2N=[N+]=[N-])CSC1(C)C (stereo partly drawn) |  | 46 | 0.00024 | 83 |  |  |  |
| CC(C)(C)NC(=O)[C@H]1N(C(=O)[C@@H](O)[C@H](Cc2ccccc2)NC(=O)CC(C)(C)C(=O)O)CSC1(C)C |  |  |  | 99 | 76 |  | 52 |
| Cc1ccccc1CNC(=O)[C@@H]1CSCN1C(=O)[C@@H](O)[C@H](Cc1ccccc1)NC(=O)C(C)C(C)C(=O)O (stereo partly drawn) |  |  |  | 88 |  |  |  |
| Cc1ccccc1CNC(=O)[C@H]1N(C(=O)[C@@H](O)[C@H](Cc2ccccc2)NC(=O)C(C)C(C)C(=O)O)CSC1(C)C (stereo partly drawn) |  |  |  | 100 | 76 |  |  |
| Cc1ccccc1CNC(=O)[C@@H]1CSCN1C(=O)[C@@H](O)[C@H](Cc1ccccc1)NC(=O)CC(C)(C)C(=O)OCC1OC(n2cc(C)c(=O)[nH]c2=O)CC1N=[N+]=[N-] (stereo partly drawn) |  | 2.9 | 0.0038 | 11 |  |  |  |
| CC(C(=O)O)C(C)C(=O)N[C@@H](Cc1ccccc1)[C@H](O)C(=O)N1CSC[C@H]1C(=O)NC(C)(C)C (stereo partly drawn) |  |  |  | 97 | 32 |  | > 2000 |
| Cc1ccccc1CNC(=O)[C@@H]1CSCN1C(=O)[C@@H](O)[C@H](Cc1ccccc1)NC(=O)C(C)C(C)C(=O)OCC1OC(n2cc(C)c(=O)[nH]c2=O)CC1N=[N+]=[N-] (stereo partly drawn) |  | 1.2 | 0.0089 | 57 |  |  |  |
